From patent US10323022B2, “Pyrrolidinyl urea, pyrrolidinyl thiourea and pyrrolidinyl guanidine compounds as TrkA kinase inhibitors” (Array BioPharma Inc., priority 2011, dated 2019)

What follows are compounds tested against TrkA (Homo sapiens (Human), UniProt P04629) (assay: TrkA Omnia Assay). Conditions: averaged IC50; 20 nM enzyme, 500 μM ATP, 10 μM peptide substrate.
Type: biochemical
How it was run: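 Continuous fluorescent kinase read-out (ex 360 nm, em 485 nm) over 70 min, with initial rates fitted to 4- or 5-parameter logistic curves for IC50. Final conditions: 500 μM ATP, 10 μM Omnia Tyr Peptide #4, 20 nM TrkA, MOPS pH 7.5 buffer with MgCl2 and Triton X-100; enzyme and compound preincubated 10 min at ambient temperature.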

Chain of TrkA (P04629 33-796): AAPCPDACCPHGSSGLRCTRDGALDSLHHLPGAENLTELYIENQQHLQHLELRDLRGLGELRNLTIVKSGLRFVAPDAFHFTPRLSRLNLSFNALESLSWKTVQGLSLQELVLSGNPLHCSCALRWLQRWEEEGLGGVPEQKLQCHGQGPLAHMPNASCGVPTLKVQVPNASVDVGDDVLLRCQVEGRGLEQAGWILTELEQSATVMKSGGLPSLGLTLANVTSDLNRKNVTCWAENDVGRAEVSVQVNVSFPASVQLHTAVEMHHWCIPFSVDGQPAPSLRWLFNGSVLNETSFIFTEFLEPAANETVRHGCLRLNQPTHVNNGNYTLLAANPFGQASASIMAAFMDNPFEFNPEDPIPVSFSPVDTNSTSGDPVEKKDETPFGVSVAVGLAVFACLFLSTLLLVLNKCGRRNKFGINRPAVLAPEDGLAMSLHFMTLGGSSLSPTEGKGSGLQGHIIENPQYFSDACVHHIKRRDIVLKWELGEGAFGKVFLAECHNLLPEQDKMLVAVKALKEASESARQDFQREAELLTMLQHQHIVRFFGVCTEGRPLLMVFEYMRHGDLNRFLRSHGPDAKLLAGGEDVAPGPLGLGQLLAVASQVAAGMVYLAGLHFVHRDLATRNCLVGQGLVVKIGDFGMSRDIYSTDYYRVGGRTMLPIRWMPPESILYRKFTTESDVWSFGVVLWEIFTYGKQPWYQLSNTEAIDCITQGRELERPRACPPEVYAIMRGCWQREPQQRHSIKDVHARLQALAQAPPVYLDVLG

IC50, < 100 nM:
COCCN1C[C@@H](NC(=O)Nc2cc(-c3ccc(CO)cc3)nn2C)[C@H](c2ccc(F)c(F)c2)C1 [Example 165, 1-((3S,4R)-4-(3,4-difluorophenyl)-1-(2-methoxyethyl)pyrrolidin-3-yl)-3-(3-(4-(hydroxymethyl)phenyl)-1-methyl-1H-pyrazol-5-yl)urea]
COCCN1C[C@@H](NC(=O)Nc2cc(-c3ccc(S(C)(=O)=O)cc3)nn2C)[C@H](c2ccc(F)c(F)c2)C1 [Example 166, 1-((3S,4R)-4-(3,4-difluorophenyl)-1-(2-methoxyethyl)pyrrolidin-3-yl)-3-(1-methyl-3-(4-(methylsulfonyl)phenyl)-1H-pyrazol-5-yl)urea]
COCCN1C[C@@H](NC(=O)Nc2c(F)c(C)nn2-c2ccccc2)[C@H](c2ccc(F)c(F)c2)C1 [Example 167, 1-((3S,4R)-4-(3,4-difluorophenyl)-1-(2-methoxyethyl)pyrrolidin-3-yl)-3-(4-fluoro-3-methyl-1-phenyl-1H-pyrazol-5-yl)urea]
COCCN1C[C@@H](NC(=O)Nc2c(F)c(-c3ccccc3)nn2C)[C@H](c2ccc(F)c(F)c2)C1 [Example 168, 1-((3S,4R)-4-(3,4-difluorophenyl)-1-(2-methoxyethyl)pyrrolidin-3-yl)-3-(4-fluoro-1-methyl-3-phenyl-1H-pyrazol-5-yl)urea]
COCCN1C[C@@H](NC(=O)Nc2c(F)c(-c3ccccc3)nn2-c2ccccc2)[C@H](c2ccc(F)c(F)c2)C1 [Example 169, 1-((3S,4R)-4-(3,4-difluorophenyl)-1-(2-methoxyethyl)pyrrolidin-3-yl)-3-(4-fluoro-1,3-diphenyl-1H-pyrazol-5-yl)urea]
COCCOC(=O)c1ccc(-c2cc(NC(=O)N[C@@H]3CN(CCOC)C[C@H]3c3ccc(F)c(F)c3)n(C)n2)cc1 [Example 170, 2-methoxyethyl 4-(5-(3-((3S,4R)-4-(3,4-difluorophenyl)-1-(2-methoxyethyl)pyrrolidin-3-yl)ureido)-1-methyl-1H-pyrazol-3-yl)benzoate]
COCCN1C[C@@H](NC(=O)Nc2c3c(nn2-c2ccccc2)CS(=O)(=O)C3)[C@H](c2ccc(F)c(F)c2)C1 [Example 171, 1-((3S,4R)-4-(3,4-difluorophenyl)-1-(2-methoxyethyl)pyrrolidin-3-yl)-3-(5,5-dioxido-2-phenyl-4,6-dihydro-2H-thieno[3,4-c]pyrazol-3-yl)urea]
COCCN1C[C@@H](NC(=O)Nc2c3c(nn2-c2ccccc2)CS(=O)(=O)C3)[C@H](c2ccccc2)C1 [Example 172, 1-(5,5-dioxido-2-phenyl-4,6-dihydro-2H-thieno[3,4-c]pyrazol-3-yl)-3-((3S,4R)-1-(2-methoxyethyl)-4-phenylpyrrolidin-3-yl)urea]
COCCN1C[C@@H](NC(=O)Nc2c3c(nn2-c2ccccc2)CS(=O)(=O)C3)[C@H](c2cc(F)cc(F)c2)C1 [Example 173, 1-((3S,4R)-4-(3,5-difluorophenyl)-1-(2-methoxyethyl)pyrrolidin-3-yl)-3-(5,5-dioxido-2-phenyl-4,6-dihydro-2H-thieno[3,4-c]pyrazol-3-yl)urea]
COCCN1C[C@@H](NC(=O)Nc2c(C)c(OCCS(C)(=O)=O)nn2-c2ccccc2)[C@H](c2ccc(F)c(F)c2)C1 [Example 174, 1-((3S,4R)-4-(3,4-difluorophenyl)-1-(2-methoxyethyl)pyrrolidin-3-yl)-3-(4-methyl-3-(2-(methylsulfonyl)ethoxy)-1-phenyl-1H-pyrazol-5-yl)urea]
COCCN1C[C@@H](NC(=O)Nc2c(CO)cnn2-c2ccccc2)[C@H](c2ccc(F)c(F)c2)C1 [Example 175, 1-((3S,4R)-4-(3,4-difluorophenyl)-1-(2-methoxyethyl)pyrrolidin-3-yl)-3-(4-(hydroxymethyl)-1-phenyl-1H-pyrazol-5-yl)urea]
